According to article PMC6516726 (ACS Catalysis, 2018):
Where two headings read alike, the source gives them in different places.

Key:
L25A PETNR = L25A PETNR (Enterobacter cloacae, UniProt P71278, L26A); settings: for kobs1 / kobs2 / A2 (amplitude of kobs2 out of total absorbance change): 10 mM NADPH or 25 mM NADH, pH 7.0
L25I PETNR = L25I PETNR (Enterobacter cloacae, UniProt P71278, L26I); settings: for kobs1 / A2 (amplitude of kobs2 out of total absorbance change) / kobs2: 10 mM NADPH or 25 mM NADH, pH 7.0
L25I PETNR, sequence (P71278 entry or part of it L26I): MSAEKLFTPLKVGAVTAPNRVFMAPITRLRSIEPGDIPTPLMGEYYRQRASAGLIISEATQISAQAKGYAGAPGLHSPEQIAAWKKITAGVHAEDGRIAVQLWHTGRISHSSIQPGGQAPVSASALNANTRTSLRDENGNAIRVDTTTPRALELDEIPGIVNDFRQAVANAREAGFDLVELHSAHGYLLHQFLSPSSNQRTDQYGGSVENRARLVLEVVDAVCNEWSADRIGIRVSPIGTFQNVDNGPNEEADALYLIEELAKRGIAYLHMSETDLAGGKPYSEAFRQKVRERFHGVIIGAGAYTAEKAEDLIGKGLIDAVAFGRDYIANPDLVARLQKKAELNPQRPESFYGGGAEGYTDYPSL

WT PETNR [1] = biological target: T1, WT PETNR (Enterobacter cloacae, UniProt P71278); experiment: pH dependence of FMN reduction of WT PETNR in MTEN buffer; format: biochemical, Enterobacter Cloacae PB2; design: made in house; settings: for Isotope effect on ΔCp⧧ / Isotope effect on ΔHT0⧧ / Isotope effect on ΔST0⧧: (R)-[4-2H]-NADPH - NADPH
T1 sequence (P71278 entry or part of it): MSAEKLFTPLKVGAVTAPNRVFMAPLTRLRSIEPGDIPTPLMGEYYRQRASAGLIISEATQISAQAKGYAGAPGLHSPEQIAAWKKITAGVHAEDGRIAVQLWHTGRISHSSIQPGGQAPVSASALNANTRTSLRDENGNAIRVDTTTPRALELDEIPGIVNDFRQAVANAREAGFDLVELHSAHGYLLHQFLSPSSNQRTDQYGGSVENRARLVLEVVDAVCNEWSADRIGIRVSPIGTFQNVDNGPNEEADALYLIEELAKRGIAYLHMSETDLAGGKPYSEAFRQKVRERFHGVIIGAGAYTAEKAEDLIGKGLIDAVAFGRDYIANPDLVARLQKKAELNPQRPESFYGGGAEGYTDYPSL
Method: (R)-[4-2H]-NADPH at pH 6, pH 7 and pH9 (A) and the corresponding temperature dependencies of the observed primary kinetic isotope effects (B). The measurements were performed in MTEN buffer (50 mM MES, 25 mM Tris, 25 mM ethanola-mine, and 100 mM NaCl), which has a useful buffering capacity and minimal change in ionic strength over the pH range 6-9 in which PETNR is stable; we attempted testing PETNR in pH 5 as well, but the enzyme is unstable at this pH. The observed rate constants of FMN reduction at pH 7 in MTEN buffer are essentially the same to those measured in 50 mM potassium phosphate buffer, pH 7 and similar observation are valid for the KIEs values (Table S3).The rate of FMN reduction is essentially insensitive to pH across the whole temperature range (5-40 °C), and also that KIEs values are essentially not affected by changes in pH (the rate of FMN reduction by (R)-[4-2H]-NADPH is independent of pH as well across all temperatures studied; see Table S3 for extracted thermodynamic parameters). Although these experiments cannot completely exclude any kinetic […]
of H-transfer and protonation (which would lead to pH-dependent rates) which makes it very likely that the observed rate are reporting directly on the H-transfer step.
Table S3. Extracted Thermodynamic Parameters from pH Dependence Studies.
(kJ mol-1) (J mol-1 K-1) (kJ mol-1 K-1)

WT PETNR [2] = biological target: T1, WT PETNR; experiment: Stopped-flow FMN reduction (reductive half-reaction, hydride transfer) of WT PETNR by coenzyme; settings: for kobs1 / A2 (amplitude of kobs2 out of total absorbance change) / kobs2: 10 mM NADPH or 25 mM NADH, pH 7.0
PETNR = biological target: PETNR; design: method as in earlier work; settings: PETNR−coenzyme analogue complex; cited from earlier work
[3] = T0 = 298 K, fit of kobs1 (5–40 °C) to eq 1
[4] = deuterated minus protiated coenzyme, T0 = 298 K

L25A PETNR, sequence (P71278 entry or part of it L26A): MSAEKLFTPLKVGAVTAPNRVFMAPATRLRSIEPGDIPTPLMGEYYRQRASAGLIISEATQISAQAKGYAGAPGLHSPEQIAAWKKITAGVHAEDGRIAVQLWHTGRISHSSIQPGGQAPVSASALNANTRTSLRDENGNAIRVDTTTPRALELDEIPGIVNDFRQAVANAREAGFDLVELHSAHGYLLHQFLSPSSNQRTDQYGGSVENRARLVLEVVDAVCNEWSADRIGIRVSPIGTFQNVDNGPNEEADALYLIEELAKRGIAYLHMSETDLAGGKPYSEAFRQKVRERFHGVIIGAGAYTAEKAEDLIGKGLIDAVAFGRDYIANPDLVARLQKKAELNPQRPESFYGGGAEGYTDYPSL

[2H][C@@H]1C=CN([C@@H]2O[C@H](COP(=O)(O)OP(=O)(O)OC[C@H]3O[C@@H](n4cnc5c(N)ncnc54)[C@H](OP(=O)(O)O)[C@@H]3O)[C@@H](O)[C@H]2O)C=C1C(N)=O [(R)-[4-^2H]-NADPH]
kobs1 (L25A PETNR; 5 °C): 2.37 ± 0.01 s⁻¹ | kobs1 (L25A PETNR; 10 °C): 3.33 ± 0.03 s⁻¹ | kobs1 (L25A PETNR; 15 °C): 4.59 ± 0.03 s⁻¹ | kobs1 (L25A PETNR; 20 °C): 6.14 ± 0.04 s⁻¹ | kobs1 (L25A PETNR; 25 °C): 8.01 ± 0.22 s⁻¹ | kobs2 (L25A PETNR; 25 °C): 0.03 ± 0.03 s⁻¹ | A2 (amplitude of kobs2 out of total absorbance change) (L25A PETNR; 30 °C): 5.83 ± 0.60% | kobs1 (L25A PETNR; 30 °C): 10.24 ± 0.05 s⁻¹ | kobs2 (L25A PETNR; 30 °C): 0.16 ± 0.03 s⁻¹ | A2 (amplitude of kobs2 out of total absorbance change) (L25A PETNR; 35 °C): 14.06 ± 0.45% | kobs1 (L25A PETNR; 35 °C): 11.89 ± 0.07 s⁻¹ | kobs2 (L25A PETNR; 35 °C): 0.17 ± 0.01 s⁻¹ | A2 (amplitude of kobs2 out of total absorbance change) (L25A PETNR; 40 °C): 31.19 ± 1.07% | kobs1 (L25A PETNR; 40 °C): 12.39 ± 0.22 s⁻¹ | kobs2 (L25A PETNR; 40 °C): 0.26 ± 0.02 s⁻¹ | ΔCp^⧧ (L25A PETNR; [3]): –0.78 ± 0.15 kJ mol^–1 K^–1 | ΔHT0^⧧ (L25A PETNR; [3]): 31.9 ± 1.1 kJ mol^–1 | ΔST0^⧧ (L25A PETNR; [3]): –120.5 ± 3.7 J mol^–1 K^–1 | Isotope Effect on ΔCp^⧧ (L25A PETNR; [4]): 0.14 ± 0.19 kJ mol^–1 K^–1 | Isotope Effect on ΔHT0^⧧ (L25A PETNR; [4]): 8.6 ± 1.27 kJ mol^–1 | Isotope Effect on ΔST0^⧧ (L25A PETNR; [4]): 13.3 ± 5.6 J mol^–1 K^–1 | kobs1 (L25I PETNR; 5 °C): 1.26 ± 0.02 s⁻¹ | kobs1 (L25I PETNR; 15 °C): 2.46 ± 0.01 s⁻¹ | A2 (amplitude of kobs2 out of total absorbance change) (L25I PETNR; 20 °C): 2.63 ± 0.15% | kobs1 (L25I PETNR; 20 °C): 3.42 ± 0.03 s⁻¹ | kobs2 (L25I PETNR; 20 °C): 0.19 ± 0.04 s⁻¹ | A2 (amplitude of kobs2 out of total absorbance change) (L25I PETNR; 25 °C): 3.59 ± 0.27% | kobs1 (L25I PETNR; 25 °C): 4.50 ± 0.02 s⁻¹ | kobs2 (L25I PETNR; 25 °C): 0.27 ± 0.03 s⁻¹ | kobs1 (L25I PETNR; 30 °C): 5.72 ± 0.06 s⁻¹ | kobs2 (L25I PETNR; 30 °C): 0.28 ± 0.01 s⁻¹ | A2 (amplitude of kobs2 out of total absorbance change) (L25I PETNR; 35 °C): 7.05 ± 0.36% | kobs1 (L25I PETNR; 35 °C): 7.20 ± 0.07 s⁻¹ | kobs2 (L25I PETNR; 35 °C): 0.42 ± 0.07 s⁻¹ | A2 (amplitude of kobs2 out of total absorbance change) (L25I PETNR; 40 °C): 12.46 ± 0.45% | kobs1 (L25I PETNR; 40 °C): 8.66 ± 0.09 s⁻¹ | ΔCp^⧧ (L25I PETNR; [3]): –0.53 ± 0.09 kJ mol^–1 K^–1 | ΔHT0^⧧ (L25I PETNR; [3]): 36.7 ± 0.5 kJ mol^–1 | Isotope Effect on ΔCp^⧧ (L25I PETNR; [4]): –0.11 ± 0.11 kJ mol^–1 K^–1 | Isotope Effect on ΔHT0^⧧ (L25I PETNR; [4]): 6.3 ± 0.7 kJ mol^–1 | Isotope Effect on ΔST0^⧧ (L25I PETNR; [4]): 5.4 ± 2.5 J mol^–1 K^–1 | ΔCp⧧ (WT PETNR [1]; pH 6, MTEN buffer): -0.57 ± 0.15 kJ mol-1 K-1 | ΔHT0⧧ (WT PETNR [1]; pH 6, MTEN buffer): 33.0 ± 0.9 kJ/mol | Isotope effect on ΔCp⧧ (WT PETNR [1]; pH 6, MTEN buffer): 0.01 ± 0.18 kJ mol-1 K-1 | Isotope effect on ΔHT0⧧ (WT PETNR [1]; pH 6, MTEN buffer): 5.8 ± 1.1 kJ/mol | Isotope effect on ΔST0⧧ (WT PETNR [1]; pH 6, MTEN buffer): 3.7 ± 3.5 J mol-1 K-1 | ΔCp⧧ (WT PETNR [1]; pH 7, MTEN buffer): -0.54 ± 0.09 kJ mol-1 K-1 | ΔHT0⧧ (WT PETNR [1]; pH 7, MTEN buffer): 34.6 ± 0.5 kJ/mol | ΔST0⧧ (WT PETNR [1]; pH 7, MTEN buffer): -115.0 ± 1.8 J mol-1 K-1 | Isotope effect on ΔCp⧧ (WT PETNR [1]; pH 7, MTEN buffer): 0.07 ± 0.12 kJ mol-1 K-1 | Isotope effect on ΔHT0⧧ (WT PETNR [1]; pH 7, MTEN buffer): 7.0 ± 0.7 kJ/mol | Isotope effect on ΔST0⧧ (WT PETNR [1]; pH 7, MTEN buffer): 7.7 ± 2.4 J mol-1 K-1 | ΔCp⧧ (WT PETNR [1]; pH 9, MTEN buffer): -0.48 ± 0.07 kJ mol-1 K-1 | ΔHT0⧧ (WT PETNR [1]; pH 9, MTEN buffer): 35.5 ± 0.4 kJ/mol | ΔST0⧧ (WT PETNR [1]; pH 9, MTEN buffer): -111.9 ± 1.3 J mol-1 K-1 | Isotope effect on ΔCp⧧ (WT PETNR [1]; pH 9, MTEN buffer): -0.03 ± 0.13 kJ mol-1 K-1 | Isotope effect on ΔHT0⧧ (WT PETNR [1]; pH 9, MTEN buffer): 6.6 ± 0.8 kJ/mol | Isotope effect on ΔST0⧧ (WT PETNR [1]; pH 9, MTEN buffer): 6.7 ± 2.6 J mol-1 K-1 | kobs1 (WT PETNR [2]; 5 °C): 1.51 ± 0.01 s⁻¹ | kobs1 (WT PETNR [2]; 10 °C): 2.13 ± 0.01 s⁻¹ | kobs1 (WT PETNR [2]; 15 °C): 2.90 ± 0.01 s⁻¹ | kobs1 (WT PETNR [2]; 20 °C): 3.95 ± 0.02 s⁻¹ | kobs1 (WT PETNR [2]; 25 °C): 5.20 ± 0.04 s⁻¹ | kobs1 (WT PETNR [2]; 30 °C): 6.59 ± 0.04 s⁻¹ | A2 (amplitude of kobs2 out of total absorbance change) (WT PETNR [2]; 35 °C): 2.54 ± 0.53% | kobs1 (WT PETNR [2]; 35 °C): 8.48 ± 0.03 s⁻¹ | kobs2 (WT PETNR [2]; 35 °C): 1.22 ± 0.45 s⁻¹ | A2 (amplitude of kobs2 out of total absorbance change) (WT PETNR [2]; 40 °C): 3.41 ± 0.65% | kobs1 (WT PETNR [2]; 40 °C): 9.96 ± 0.18 s⁻¹ | kobs2 (WT PETNR [2]; 40 °C): 1.11 ± 0.24 s⁻¹ | ΔCp^⧧ (WT PETNR [2]; [3]): –0.32 ± 0.04 kJ mol^–1 K^–1 | ΔHT0^⧧ (WT PETNR [2]; [3]): 36.8 ± 0.3 kJ mol^–1 | Isotope Effect on ΔCp^⧧ (WT PETNR [2]; [4]): 0.18 ± 0.06 kJ mol^–1 K^–1 | Isotope Effect on ΔHT0^⧧ (ΔΔHT0^⧧) (WT PETNR [2]; [4]): 6.4 ± 0.4 kJ mol^–1 | Isotope Effect on ΔST0^⧧ (WT PETNR [2]; [4]): 5.8 ± 1.5 J mol^–1 K^–1

NC(=O)C1=CN([C@@H]2O[C@H](COP(=O)(O)OP(=O)(O)OC[C@H]3O[C@@H](n4cnc5c(N)ncnc54)[C@H](O)[C@@H]3O)[C@@H](O)[C@H]2O)CCC1 [NADH4, 1,4,5,6-tetrahydro-NAD]
Kd (PETNR): 140 µM
